A word on the TGI: it is the concentration giving total growth inhibition. A lower TGI goes with more potent growth arrest.

The test system of test [1] is P388 Lymphocytic Leukemia. Nature of the test: Dolastatin 10 in murine in vivo system, P388 Lymphocytic Leukemia. An excerpt: (§1) Presently Dolastatin 10, a linear pentapeptide represents the most important member and is a potentially useful antineoplastic agent.
Test [2] concerns LOX Human Melanoma Xenograph. Nature of the test: Dolastatin 10 in murine in vivo system, LOX Human Melanoma Xenograph (Nude Mouse).
Excerpt: as §1

The test system of a further test is Human Mammary Xenograph. Nature of the test: Dolastatin 10 in murine in vivo system, Human Mammary Xenograph Nude Mouse.
Excerpt: as §1

The subject of test [3] is OVCAR-3 Human Ovary Xenograph. The test is described as follows: Dolastatin 10 in murine in vivo system, OVCAR-3 Human Ovary Xenograph Nude Mouse. The following applies: 40 μg/kg. An excerpt: The synthesis of potentially useful peptides presents one of the most essential and promising approaches to new types of anticancer and immunosuppressant drugs. The Dolastatins, an unprecedented series of linear and cyclic antineoplastic and/or cytostatic peptides isolated from Indian Ocean sea hare Dolabella auricularia represent excellent leads for synthetic modification. The very productive sea hare Dolabella auricularia has produced a number of structurally distinct peptides with excellent antineoplastic activity. Presently Dolastatin 10, a linear pentapeptide represents the most important member and is a potentially useful antineoplastic agent. […] Recently the total synthesis and absolute configuration of this structurally unique and biologically active peptide was reported.

In test [4] the test system is murine lymphocytic P388 leukemia cell line. The test is described as follows: Inhibition of murine lymphocytic P388 leukemia cell line. The format is cell-based. To be noted: MOUSE LEUKEMIA P388. An excerpt: (§2) The dipeptides (1a-1e) were in turn prepared by coupling dolaproine (5) with the respective amino acids. All compounds were characterized (physical and spectroscopic data) and tested against the murine lymphocytic P388 leukemia cell line as well as six major human cancer cell lines.

The subject of another test is OVCAR-3. Nature of the test: Inhibition of human cancer cell line OVCAR-3 (Ovarian). Type of test: cell-based.
Excerpt: (§3) Current research in the control of cancer in the United States is coordinated by the National Cancer Institute (NCI). To determine whether a substance has anti-cancer properties, the NCI has established a systematic protocol. […] The protocol, and the established statistical means for analyzing the results obtained by the standardized testing are fully described in the literature. See: Boyd, Dr. Michael R., Principles & Practice of Oncology, PPO Updates, Volume 3, Number 10, October 1989, for an in depth description of the testing protocol; and Paull, K. D., "Display and Analysis of Patterns of Differential Activity of Drugs Against Human Tumor Cell Lines; Development of Mean Graph and COMPARE Algorithm", Journal of the National Cancer Institute Reports, Vol. 81, No. 14, Page 1088, Jul. 14, 1989 for a description of the methods of statistical analysis. Both of these references are incorporated herein by this reference thereto.
as §2

The next test deals with SF-295. The test is described as follows: Inhibition of human cancer cell line SF-295 (CNS). Type of test: cell-based.
Excerpt: as §3, §2

A further test concerns A498. The test is described as follows: Inhibition of human cancer cell line A498 (Renal). The format is cell-based.
Excerpt: as §3, §2

The test system of the next test is NCI-H460. Nature of the test: Inhibition of human cancer cell line NCI-H460 (Lung-NSC). Type of test: cell-based.
Excerpt: as §3, §2

The next test relates to KM20L2. Nature of the test: Inhibition of human cancer cell line KM20L2 (Colon). The format is cell-based.
Excerpt: as §3, §2

The test system of another test is SK-MEL-3. The test is described as follows: Inhibition of human cancer cell line SK-MEL-3 (Melanoma). Type of test: cell-based.
Excerpt: as §3, §2

For the substance Dolastatin 10, the T/C in [1] (3.25 μg/kg) is given as 146; in test [1] (6.5 μg/kg) it was 155; in test [2] (3.25 μg/kg), 170; in test [2] (6.5 μg/kg) it was 206; in test [2] (13 μg/kg), 301; in test [2] (26 μg/kg), 301. The values for the T/C (with Human Mammary Xenograph (6.25 μg/kg); in the test with Human Mammary Xenograph (13 μg/kg); in [3]) were 178, 137 and 300, respectively.
“Dov-Val-Dil-Dap-Ile-OCH3 [pentapeptide 3d]” registered an ED50 in [4] of 0.441 ng/mL. Besides, the GI-50 in the test with OVCAR-3, in the test with SF-295, in the test on A498, in the test with NCI-H460, in the test on KM20L2 and with SK-MEL-3 was less than 0.0001 µg/mL each time. Further, the LC-50 in the test with OVCAR-3 was 0.043 µg/mL; in the test with SF-295 it was more than 1 µg/mL; with A498 it was more than 1 µg/mL; in the test on NCI-H460 it was more than 1 µg/mL; with KM20L2 it was more than 1 µg/mL; with SK-MEL-3 it was more than 1 µg/mL. In addition, the TGI with OVCAR-3 was less than 0.1 ng/mL; with SF-295 it was 170 ng/mL; in the test with A498 it was less than 0.1 ng/mL; in the test with NCI-H460, 0.88 ng/mL; in the test on KM20L2 it was less than 0.1 ng/mL; with SK-MEL-3, less than 0.1 ng/mL.
In test [4], “Dov-Val-Dil-Dap-Met-OCH3 [pentapeptide 3e]” displayed an ED50 of 0.389 ng/mL. The GI-50 in the test with OVCAR-3, with SF-295, in the test with A498, in the test with NCI-H460, in the test on KM20L2 and in the test on SK-MEL-3 was less than 0.0001 µg/mL in each case. Moreover, the LC-50 with OVCAR-3, in the test on SF-295, with A498, in the test with NCI-H460, with KM20L2 and in the test with SK-MEL-3 was more than 1 µg/mL in each case. Besides, the TGI is less than 0.1 ng/mL in the test on OVCAR-3; 56 ng/mL with SF-295; more than 1000 ng/mL in the test on A498; 130 ng/mL in the test on NCI-H460; 0.15 ng/mL in the test on KM20L2; more than 1000 ng/mL in the test with SK-MEL-3.
“Dov-Val-Dil-Dap-Phe-NH2 [pentapeptide 3b]” showed an ED50 in test [4] of 19.5 ng/mL. The GI-50 in the test with OVCAR-3 was 0.0076 µg/mL; with SF-295, 0.00085 µg/mL; in the test with A498, 0.00097 µg/mL; in the test on NCI-H460, 0.000095 µg/mL; in the test on KM20L2, less than 0.0001 µg/mL; in the test on SK-MEL-3 it was 0.00017 µg/mL. The LC-50 is 0.066 µg/mL in the test with OVCAR-3; more than 1 µg/mL in the test on SF-295; more than 1 µg/mL in the test with A498; more than 1 µg/mL in the test with NCI-H460; 0.083 µg/mL with KM20L2; more than 1 µg/mL with SK-MEL-3. Also, the TGI with OVCAR-3 worked out at 3.7 ng/mL; in the test on SF-295, 49 ng/mL; with A498, 6.2 ng/mL; with NCI-H460, 11 ng/mL; in the test on KM20L2, 19 ng/mL; with SK-MEL-3, 12 ng/mL.
In the case of “Dov-Val-Dil-Dap-Phe-OCH3 [pentapeptide 3a]”, the ED50 in [4] is 66.7 ng/mL. For the same substance, the GI-50 in the test with OVCAR-3, in the test on SF-295, in the test on A498, in the test with NCI-H460, in the test on KM20L2 and in the test with SK-MEL-3 was less than 0.0001 µg/mL in each case. Also, the LC-50 in the test on OVCAR-3, in the test on SF-295, in the test on A498, in the test with NCI-H460, in the test on KM20L2 and with SK-MEL-3 was more than 1 µg/mL throughout. The TGI in the test with OVCAR-3 came to 1.1 ng/mL; in the test on SF-295, 0.17 ng/mL; in the test with A498 it was 2.9 ng/mL; in the test with NCI-H460, 11 ng/mL; in the test on KM20L2, 1.1 ng/mL; in the test with SK-MEL-3, 0.68 ng/mL.
Turning to “Dov-Val-Dil-Dap-Pro-OCH3 [pentapeptide 3c]”, in [4], the ED50 was determined as 8.8 ng/mL. The GI-50 in the test on OVCAR-3, with SF-295, with A498, in the test with NCI-H460, in the test with KM20L2 and with SK-MEL-3 was less than 0.0001 µg/mL in each case. Further, the LC-50 in the test with OVCAR-3, in the test with SF-295, with A498, with NCI-H460, in the test on KM20L2 and with SK-MEL-3 was more than 1 µg/mL throughout. For the same substance, the TGI in the test on OVCAR-3 is less than 0.1 ng/mL; with SF-295, 2.4 ng/mL; with A498 it was 5.4 ng/mL; with NCI-H460 it was 1.3 ng/mL; with KM20L2, 2.2 ng/mL; in the test on SK-MEL-3, less than 0.1 ng/mL.

The values above are taken from patent US5780588A, “Elucidation and synthesis of selected pentapeptides” (priority 1993, dated 1998).
